According to patent publication US6906078B2, “Method of using (H+/K+) ATPase inhibitors as antiviral agents” (Pharmacia Corporation, priority 1994, dated 2005):

Columns and labels:
(H+/K+)-ATPase = target: T1, (H+/K+)-ATPase (Canis lupus familiaris, UniProt P50996); assay: Inhibition of (H+/K+)-ATPase from canine gastric mucosa (inorganic phosphate release); assay type: biochemical; conditions: canine gastric mucosa microsomes, pH 6.0, 30 min preincubation at 37° C.; read-out: (H+/K+)-ATPase IC50
T1 construct: The microsomes retained at the 15%-30% sucrose interface, after centrifugation at 250,000×g for sixty minutes, were used as the source of (H^+/K^+)-ATPase; from tissue; host or cells: gastric glandular mucosa of mongrel dogs (microsomal fraction, lyophilized)
Description: Mongrel dogs weighing 15 to 25 kilograms were fasted for twenty-four hours, with water provided ad libitum. The animals were anesthetized with pentobarbital and the stomachs were removed. Subsequent tissue manipulations and subcellular fractionations were performed at 0° C. to 4° C. After the stomachs were cut open and rinsed with tap water, the antral and cardiac regions were removed and the remaining tissue was rinsed three times in saline. The glandular mucosa was removed mechanically, chopped finely in a medium containing 10 mM Tris hydrochloride (pH 7.4) and 250 mM sucrose, and homogenized. The homogenate was centrifuged at 20,000×g for twenty minutes and the pellet discarded. The supernatant was then centrifuged at 150,000×g for ninety minutes and the supernatant discarded. The pellet was resuspended in the Tris-HCl/sucrose medium by homogenization. Part (2 ml) of the resultant microsomal suspension was layered onto a step gradient consisting of 9 ml of 15% sucrose above 12 ml of 30% sucrose, each sucrose solution being buffered with 10 mM Tris hydrochloride (pH 7.4) containing 0.01% sodium azide. The microsomes retained at the 15%-30% sucrose interface, after centrifugation at 250,000×g for sixty minutes, were used as the source of (H^+/K^+)-ATPase. Microsomal preparations were lyophilized, a process that assured potassium ion permiability, and stored at −10° C. until used.
(H^+/K^+)-ATPase activity for each test compound was determined, in duplicate, by measuring the release of inorganic phosphate, which was assayed according to the method of J. ChandraRajan and L. Klein, Anal. Biochem., 72 , 407 (1976). The (H^+/K^+)-ATPase assay medium consisted of 20 mm mes-Tris (pH 6.0), 5 mM magnesium chloride, 25 mM sucrose, and 4 mM Tris-ATP with or without 20 mM potassium chloride in a total volume of 2 ml. Microsomal suspensions (20 to 60 mcl, containing about 25 mcg protein) were added to the assay medium, without Tris-ATP, and then preincubated with a test compound for thirty minutes at 37° C. The assay was initiated by adding Tris-ATP and the mixture was incubated another thirty minutes at 37° C. A 200-mcl aliquot of the assay mixture was then added to 1.4 ml of a solution consisting of 0.1 M sodium acetate (pH 4.0) and 10% sodium dodecylsulfate, followed by the addition of 200 mcl each of 1% ammonium molybdate and 1% ascorbic acid. At least fifteen minutes later, the optical absorbance at 870 nm (which was proportional to inorganic phosphate concentration up to 100 nmoles per tube, as determined by a standard curve) was obtained. Enzyme activity was linear with incubation time.
(H^+/K^+)-ATPase activity is represented by the difference between the measured activities in the presence of potassium-ion (K^+-stimulated) and in the absence of potassium ion (basal).

T1 sequence (P50996 whole entry): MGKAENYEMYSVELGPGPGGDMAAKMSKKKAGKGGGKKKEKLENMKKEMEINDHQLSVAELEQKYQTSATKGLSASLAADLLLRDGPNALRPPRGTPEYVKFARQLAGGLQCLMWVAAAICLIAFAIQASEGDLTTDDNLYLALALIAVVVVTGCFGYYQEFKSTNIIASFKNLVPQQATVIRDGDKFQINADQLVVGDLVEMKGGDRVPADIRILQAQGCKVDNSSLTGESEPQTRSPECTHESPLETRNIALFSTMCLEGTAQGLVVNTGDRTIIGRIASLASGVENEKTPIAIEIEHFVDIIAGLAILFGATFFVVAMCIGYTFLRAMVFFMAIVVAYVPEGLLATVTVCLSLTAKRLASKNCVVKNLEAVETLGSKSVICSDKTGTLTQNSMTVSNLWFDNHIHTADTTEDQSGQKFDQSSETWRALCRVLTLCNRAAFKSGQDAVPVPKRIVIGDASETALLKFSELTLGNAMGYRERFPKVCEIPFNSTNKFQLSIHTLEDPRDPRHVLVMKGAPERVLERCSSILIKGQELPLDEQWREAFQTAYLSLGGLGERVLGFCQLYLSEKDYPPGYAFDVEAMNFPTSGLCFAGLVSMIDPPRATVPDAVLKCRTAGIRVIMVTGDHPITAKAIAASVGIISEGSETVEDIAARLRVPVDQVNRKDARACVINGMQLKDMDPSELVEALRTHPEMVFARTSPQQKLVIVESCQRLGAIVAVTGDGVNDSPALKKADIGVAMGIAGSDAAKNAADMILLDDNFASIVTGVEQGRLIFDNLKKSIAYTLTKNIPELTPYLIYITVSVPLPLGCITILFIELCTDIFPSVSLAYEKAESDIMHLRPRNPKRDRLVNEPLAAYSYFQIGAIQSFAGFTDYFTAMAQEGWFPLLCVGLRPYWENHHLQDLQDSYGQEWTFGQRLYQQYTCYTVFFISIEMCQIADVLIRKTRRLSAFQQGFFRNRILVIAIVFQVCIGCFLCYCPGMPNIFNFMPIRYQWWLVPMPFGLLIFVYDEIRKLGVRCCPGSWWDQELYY
T1 sequence (P33704 whole entry partner): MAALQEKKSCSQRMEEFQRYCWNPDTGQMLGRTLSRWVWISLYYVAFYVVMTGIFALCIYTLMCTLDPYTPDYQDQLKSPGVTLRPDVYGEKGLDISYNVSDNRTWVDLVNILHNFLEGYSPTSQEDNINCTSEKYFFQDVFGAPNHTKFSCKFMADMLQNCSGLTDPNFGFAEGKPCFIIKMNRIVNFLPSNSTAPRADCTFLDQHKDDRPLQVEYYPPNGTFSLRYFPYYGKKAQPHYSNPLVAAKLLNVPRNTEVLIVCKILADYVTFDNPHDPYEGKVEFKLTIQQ

Work on `COc1ccc(N)c(CSc2nc3ccccc3[nH]2)c1.Cl.Cl` yielded a melting point of 206 to 208 °C.
With `CCOc1ccc2[nH]c(SCc3ccccc3N)nc2c1.O` (hydrate or solvate) the melting point was 87 to 89 °C.
In the case of `Cc1cc2nc([S+]([O-])Cc3ccccc3N)[nH]c2cc1C` (stereo not shown) (hydrate or solvate) [Example 10, 2-[[(5,6-Dimethyl-1H-benzimidazol-2-yl)sulfinyl]methyl]benzenamine ¼ hydrate], the melting point is reported as 179 to 181 °C.
`Cc1cccc(N)c1C[S+]([O-])c1nc2ccccc2[nH]1` (stereo not shown) (hydrate or solvate) [Example 24, 2-[(1H-Benzimidazol-2-ylsulfinyl)methyl]-3-methylbenzenamine ¼ hydrate] showed a melting point of 152 to 153 °C.
Work on `CNc1ccccc1C[S+]([O-])c1nc2ccccc2[nH]1.O` (stereo not shown) (hydrate or solvate) [Example 32, 2-[(1H-Benzimidazol-2-ylsulfinyl)methyl]-N-methylbenzenamine monohydrate] yielded a melting point of 117 to 120 °C.
For `Cc1ccc(C[S+]([O-])c2nc3ccccc3[nH]2)c(N)c1C` (stereo not shown) (hydrate or solvate) [Example 53, 2-[(1H-Benzimidazol-2-ylsulfinyl)methyl]-5,6-dimethylbenzenamine ¼ hydrate], the melting point was 160 °C (dec.).
`Cc1ccc(C)c(C[S+]([O-])c2nc3ccccc3[nH]2)c1N.O` (stereo not shown) (hydrate or solvate) [Example 55, 2-[(1H-Benzimidazol-2-ylsulfinyl)methyl]-3,6-dimethylbenzenamine monohydrate] showed a melting point of 144 to 145 °C.
With `CN(C)c1ccccc1CSc1nc2ccccc2[nH]1` [Example 1, 2-[(1H-Benzimidazol-2-ylthio)methyl]-N,N-dimethylbenzenamine] the melting point was 167 to 170 °C.
In the case of `Cc1cccc2[nH]c(SCc3ccccc3N)nc12` [Example 7, 2-[[(4-Methyl-1H-benzimidazol-2-yl)thio]methyl]benzenamine], the melting point is reported as 125 to 127 °C.
`COc1ccc2[nH]c(SCc3ccccc3N)nc2c1` [Example 11, 2-[[(5-methoxy-1H-benzimidazol-2-yl)thio]methyl]benzenamine] showed a melting point of 140 to 142 °C.
`Nc1ccc(Cl)cc1CSc1nc2ccccc2[nH]1` [Example 15, 2-[(1H-Benzimidazol-2-ylthio)methyl]-4-chlorobenzenamine] showed a melting point of 114 to 118 °C.
Compound `Nc1cc(Cl)ccc1CSc1nc2ccccc2[nH]1` [Example 17, 2-[(1H-Benzimidazol-2-ylthio)methyl]-5-chlorobenzenamine] has a melting point of 158 to 160.5 °C.
`Cc1cccc(CSc2nc3ccccc3[nH]2)c1N` [Example 27, 2-[(1H-Benzimidazol-2-ylthio)methyl]-6-methylbenzenamine] gave a melting point of 130 to 134 °C.
Work on `Cc1cc(C)c(N)c(CSc2nc3ccccc3[nH]2)c1` [Example 29, 2-[(1H-Benzimidazol-2-ylthio)methyl]-4,6-dimethylbenzenamine] yielded a melting point of 139 to 141 °C.
`Cc1cc(C)c(N)c(C[S+]([O-])c2nc3ccccc3[nH]2)c1` (stereo not shown) [Example 30, 2-[(1H-Benzimidazol-2-ylsulfinyl)methyl]-4,6-dimethylbenzenamine hemihydrate] gave an IC50 ((H+/K+)-ATPase) of 0.85 µM.
With `CNc1ccccc1CSc1nc2ccccc2[nH]1` [Example 31, 2-[(1H-Benzimidazol-2-ylthio)methyl]-N-methylbenzenamine] the melting point was 109 to 112 °C.
For `COc1ccc2[nH]c(SCc3cccc(C)c3N)nc2c1` [Example 35, 2-[[(5-methoxy-1H-benzimidazol-2-yl)thio]methyl]-6-methylbenzenamine], the melting point was 132 to 134 °C.
With `Nc1ccc(C(F)(F)F)cc1CSc1nc2ccccc2[nH]1` [Example 48, 2-[(1H-Benzimidazol-2-ylthio)methyl]-4-(trifluoromethyl)benzenamine] the melting point was 130 to 137 °C.
`Cc1ccc(C)c(C[S+]([O-])c2nc3ccccc3[nH]2)c1N` (stereo not shown) [Example 55, 2-[(1H-Benzimidazol-2-ylsulfinyl)methyl]-3,6-dimethylbenzenamine monohydrate] showed an IC50 ((H+/K+)-ATPase) of 0.82 µM.
In the case of `COc1cc(Cl)c(C)c(CSc2nc3ccccc3[nH]2)c1N` [Example 58, 2-[(1H-Benzimidazol-2-ylthio)methyl]-4-chloro-6-methoxy-3-methylbenzenamine], the melting point is reported as ~ 100 °C.
Work on `CCOc1ccc2[nH]c([S+]([O-])Cc3cc(C)ccc3N)nc2c1` (stereo not shown) [Example 61, 2-[[(5-Ethoxy-1H-benzimidazol-2-yl)sulfinyl]-methyl]-4-methylbenzenamine] yielded an IC50 ((H+/K+)-ATPase) of 5.3 µM and a melting point of 144 to 145 °C.
With `Cc1ccc2[nH]c([S+]([O-])Cc3ccc(C)c(C)c3N)nc2c1` (stereo not shown) [Example 63, 2-[[(5-Methyl-1H-benzimidazol-2-yl)sulfinyl]-methyl]-5,6-dimethylbenzenamine hemihydrate] the IC50 ((H+/K+)-ATPase) was 0.71 µM.
In the case of `Cc1ccc(C)c(C[S+]([O-])c2nc3cc(C(F)(F)F)ccc3[nH]2)c1N` (stereo not shown) [Example 65], the IC50 ((H+/K+)-ATPase) is reported as 1.5 µM.
With `COc1cccc(C[S+]([O-])c2nc3cc(C(F)(F)F)ccc3[nH]2)c1N` (stereo not shown) [Example 67] the IC50 ((H+/K+)-ATPase) was 8.5 µM.
With `CCOC(=O)c1ccc(N)c(CSc2nc3ccccc3[nH]2)c1` [Example 70, Ethyl 4-amino-3-[(1H-benzimidazol-2-ylthio)methyl]benzoate] the melting point was 174 to 176 °C.
Work on `CCOC(=O)c1ccc(N)c(CSc2nc3cc(OC)ccc3[nH]2)c1` [Example 72, Ethyl 4-amino-3-[[(5-methoxy-1H-benzimidazol-2-yl)thio]methyl]benzoate] yielded a melting point of 140 to 146 °C.
For `COc1cc2nc([S+]([O-])Cc3cc(C)ccc3N)[nH]c2cc1OC` (stereo not shown) [Example 75], the IC50 ((H+/K+)-ATPase) was 120 µM.
`Cc1cc(N)c(C[S+]([O-])c2nc3ccccc3[nH]2)c(C)c1C` (stereo not shown) [Example 77, 2-[(1H-Benzimidazol-2-ylsulfinyl)methyl]-3,4,5-trimethylbenzenamine hemihydrate] showed an IC50 ((H+/K+)-ATPase) of 16 µM.
`Cc1cccc2[nH]c([S+]([O-])Cc3cccc(N)n3)nc12` (stereo not shown) [Example 87, 6-[[(4-Methyl-1H-benzimidazol-2-yl)-sulfinyl]methyl]-2-pyridinamine] gave an IC50 ((H+/K+)-ATPase) of 2.2 µM.
`Cc1ccc2[nH]c([S+]([O-])Cc3cccc(N)n3)nc2c1` (stereo not shown) [Example 89, 6-[[(5-Methyl-1H-benzimidazol-2-yl)-sulfinyl]methyl]-2-pyridinamine] showed an IC50 ((H+/K+)-ATPase) of 1.68 µM.
In the case of `Nc1cccc(C[S+]([O-])c2nc3cc(Cl)ccc3[nH]2)n1` (stereo not shown) [Example 93, 6-[[(5-Chloro-1H-benzimidazol-2-yl)-sulfinyl]methyl]-2-pyridinamine], the IC50 ((H+/K+)-ATPase) is reported as 6.9 µM.
`Nc1cccc(C[S+]([O-])c2nc3cc(C(F)(F)F)ccc3[nH]2)n1` (stereo not shown) [Example 95, 6-[[[5-(Trifluoromethyl)-1H-benzimidazol-2-yl]sulfinyl]methyl]-2-pyridinamine] gave an IC50 ((H+/K+)-ATPase) of 6.95 µM.
With `CCOc1ccc2[nH]c([S+]([O-])Cc3cccc(N)n3)nc2c1` (stereo not shown) [Example 97, 6-[[(5-Ethoxy-1H-benzimidazol-2-yl)-sulfinyl]methyl]-2-pyridinamine] the IC50 ((H+/K+)-ATPase) was 3.1 µM.
Compound `COc1cc2nc([S+]([O-])Cc3cccc(N)n3)[nH]c2cc1OC` (stereo not shown) [Example 99, 6-[[(5,6-Dimethoxy-1H-benzimidazol-2-yl)-sulfinyl]methyl]-2-pyridinamine ¼ hydrate] has an IC50 ((H+/K+)-ATPase) of 23.7 µM.
Compound `Cc1cc2nc([S+]([O-])Cc3cccc(N)n3)[nH]c2cc1C` (stereo not shown) [Example 101, 6-[[(5,6-Dimethyl-1H-benzimidazol-2-yl)-sulfinyl]methyl]-2-pyridinamine] has an IC50 ((H+/K+)-ATPase) of 0.72 µM.
With `Cc1cc(C)c2nc([S+]([O-])Cc3cccc(N)n3)[nH]c2c1` (stereo not shown) [Example 103, 6-[[(4,6-Dimethyl-1H-benzimidazol-2-yl)-sulfinyl]methyl]-2-pyridinamine] the IC50 ((H+/K+)-ATPase) was 1.8 µM.
Compound `Nc1cccc(C[S+]([O-])c2nc3cc(CO)ccc3[nH]2)n1` (stereo not shown) [Example 105, 6-[[[5-(Hydroxymethyl)-1H-benzimidazol-2-yl]sulfinyl]methyl]-2-pyridinamine ¼ hydrate] has an IC50 ((H+/K+)-ATPase) of 9.5 µM.
For `CC(C)(C)CNc1cccc(C[S+]([O-])c2nc3ccccc3[nH]2)n1` (stereo not shown) [Example 107, 6-[(1H-Benzimidazol-2-ylsulfinyl)methyl]-N-(2,2-dimethylpropyl)-2-pyridinamine ¼ hydrate], the IC50 ((H+/K+)-ATPase) was 9.1 µM.
Work on `Nc1ccc(C[S+]([O-])c2nc3ccccc3[nH]2)cn1` (stereo not shown) [Example 111, 5-[(1H-Benzimidazol-2-ylsulfinyl)methyl]-2-pyridinamine ¼ hydrate] yielded an IC50 ((H+/K+)-ATPase) of 34.8 µM.
